Experimental data taken from EP1059033A1, “INDUSTRIAL ANTIBACTERIAL/ANTIFUNGAL AGENTS, ALGICIDES AND ANTI-BIOLOGICAL ADHESION AGENTS CONTAINING BENZYLAMINES” (Nissan Chemical Industries, Ltd., priority 1998, dated 1999).
Converted amounts (≈) assume the structure as drawn. Where two headings read alike, the source gives them in different places.

Assays:
Format in all cases: cell-based
[1] = test system: freshwater blue-green alga (Microcystis aeruginosa); assay: Inhibition of propagation of freshwater algae (Example 6); conditions: 500ppb
Experimental: (§1) A predetermined amount each of the compounds of the invention was dissolved in a culture medium containing 10^5 /ml of a freshwater alga at a logarithmic growth phase to prepare samples having a concentration of the compound of the invention in the medium of 500 ppb and 50 ppb respectively. A shaking culture at 100 rpm was performed for […] under continuous illumination at 20±2 °C for freshwater diatom and at 23±2 °C for other algae.
(§2) After 72 hours and 168 hours, the […] of cells was measured using a hemacytometer to obtain propagation rate. The propagation inhibiting rate was calculated from comparison with the non-treated lot. Symbols in the tables mean the followings; • A: freshwater green alga (Chlorella pyrenoidosa), • B: freshwater blue-green alga (Microcystis aeruginosa), • C: freshwater diatom (Diatoma elongatum), • D: freshwater green alga (Scenedesmus pannonicus).

[2] = test system: freshwater green alga (Chlorella pyrenoidosa); assay: as above; conditions: Auxenochlorella pyrenoidosa, 500ppb, 168hr, read-out: Propagation inhibiting rate(%) 500ppb 168hr
Experimental: as §1, §2

[3] = test system: freshwater green alga (Scenedesmus pannonicus); assay: as above; conditions: Desmodesmus pannonicus, 500ppb
Experimental: as §1, §2

Aspergillus niger = assay: Agar dilution MIC (Example 3); conditions: 168 h, agar plate, 27 °C, 7 days
Experimental: (§3) Series of diluted samples (20000, 10000, 5000, 2500, 1250, 625, 313, 156, 78, 39 mg/l) of the compounds of the invention were prepared using dimethylsulfoxide. A sensitive culture medium-N (Nissui Seiyaku Co.) was used for bacteria and a potato dextrose agar culture medium (Nissui Seiyaku Co.) was used for fungi. 0.5 ml of each sample was added to and mixed with 9.5 ml of the culture medium, poured into a Petri dish and solidified to obtain a plate. As a result, the concentration of the compounds of the invention in the agar culture medium were 1000, 500, 250, 125, 62.5, 31.3, 15.6, 7.8, 3.9, 2.0 mg/l. The bacterium inoculated were cultured in a bouillon for the assay of sensitivity (Nissui Seiyaku Co.) at 37 °C for 20 hours, and the fungi were cultured in the potato dextrose agar culture medium (Nissui Seiyaku Co.) for 10 days and then a 10^6 CFU/ml suspension was prepared from each of them. A test bacteria or fungi suspension was streaked on an agar plate containing the compound of the present invention with platinum wire loop, and the agar plate was cultured at 37±1 °C for 18 to 20 hours for bacteria or at 27 °C for 7 days for fungi. A concentration at which no growth was seen was taken as minimum inhibitory concentration (MIC). Symbols in the tables mean the followings; • A: Bacillus subtilis, • B: Trichophyton mentagrophytes, • C: Staphylococcus aureus, • D: Aspergillus niger, • E: Penicillium funiculosum, • F: Candida albicans, • G: Micrococcus luteus, • H: Corynebacterium aquaticum, • I: Chaetomium globosum, • J: Fusarium moniliforme, • K: Saccharomyces cerevisiae, • L: Rhodotorula rubra, • M: Cladosporium cladosporioides, • N: Alternaria alternata.

Rhodotorula rubra = assay: Agar dilution MIC (Example 3); conditions: 168 h, agar plate, 27 °C, 7 days
Experimental: as §3

Penicillium funiculosum = assay: Agar dilution MIC (Example 3); conditions: Talaromyces funiculosus, 168 h, agar plate, 27 °C, 7 days
Experimental: as §3

[4] = test system: Cladosporium cladosporioides; assay: Agar dilution MIC (Example 3); conditions: 168 h, agar plate, 27 °C, 7 days
Experimental: as §3

Fusarium moniliforme = assay: Agar dilution MIC (Example 3); conditions: Fusarium verticillioides, 168 h, agar plate, 27 °C, 7 days
Experimental: as §3

Chaetomium globosum = assay: Agar dilution MIC (Example 3); conditions: 168 h, agar plate, 27 °C, 7 days
Experimental: as §3

[5] = test system: Corynebacterium aquaticum; assay: Agar dilution MIC (Example 3); conditions: Leifsonia aquatica, agar plate, 37±1 °C, 18 to 20 hours
Experimental: as §3

Alternaria alternata = assay: Agar dilution MIC (Example 3); conditions: 168 h, agar plate, 27 °C, 7 days
Experimental: as §3

Saccharomyces cerevisiae = assay: Agar dilution MIC (Example 3); conditions: 168 h, agar plate, 27 °C, 7 days
Experimental: as §3

[6] = test system: Trichophyton mentagrophytes; conditions: 72 h, 100 ppm
Experimental: 31.3 ml of Trichophyton mentagrophytes to be tested was added to 125 ml of a potato dextrose agar culture medium (Nissui Seiyaku Co.). The medium was stirred not to foam the solutions, poured into plates uniformly and solidified.
Thereafter, predetermined amounts of the compounds of the invention were weighted and diluted with acetone to predetermined concentrations.
Paper disks were impregnated with samples containing predetermined amounts of the compounds of the invention, laid on a filter, dried with air and placed on a plate containing test microbe at equal intervals.
Trichophyton mentagrophytes was cultured at 28 °C for 3 days in a thermostatic chamber and the diameter of each inhibiting zone was measured to evaluate the activity of each compound. Symbols in the table mean the followings; • A: Trichophyton mentagrophytes, • ++: strongly inhibiting zone (equal to or more than 21 mm) is observed, • +: inhibiting zone (10 to 20 mm) is observed, • -: no inhibiting zone is observed.

[7] = test system: freshwater green alga (Selenastrum capricornutum); assay: Inhibition of propagation of freshwater green alga (Example 4); conditions: after 72 hours, cell number vs non-treated lot; for inhibition at 0.5 ppm: 500ppb, read-out: Propagation inhibiting rate(%) 500ppb
Experimental: A predetermined amount of each of the compounds of the invention was dissolved in a culture medium containing 10^5 /ml of a freshwater green alga (Selenastrum capricornutum) at a logarithmic growth phase to prepare samples having a concentration of the compound of the invention in the medium of 500 ppb and 50ppb respectively. The samples were stationary cultured at 23±1 °C for […] under continuous illumination.
After 72 hours, the number of cells was measured using a hemacytometer to obtain propagation rate. The propagation inhibiting rate was calculated from comparison with the non-treated lot.

Rhodotorula mucilaginosa = assay: Agar dilution MIC (Example 2); conditions: 168 h, agar plate, 27 °C, 7 days
Experimental: (§4) Series of diluted samples (20000, 10000, 5000, 2500, 2000, 1250, 625, 313, 156, 78, 39, 20, 10, 5, 2.5, 1.25 mg/l) of the compounds of the invention were prepared using dimethylsulfoxide. A sensitive culture medium-N (Nissui Seiyaku Co.) was used for bacteria and a potato dextrose agar culture medium (Nissui Seiyaku Co.) was used for fungi. 0.5 ml of each sample was added to and mixed with 9.5 ml of the culture medium, poured into a Petri dish and solidified to obtain a plate. As a result, the concentration of the compounds of the invention in the agar culture medium were 1000, 500, 250, 125, 100, 62.5, 31.3, 15.6, 7.8, 3.9, 2.0, 1.0, 0.5, 0.25, 0.125, 0.062 mg/l. The bacterium inoculated were cultured in a bouillon for the assay of sensitivity (Nissui Seiyaku Co.) at 37 °C for 20 hours, and the fungi were cultured in the potato dextrose agar culture medium (Nissui Seiyaku Co.) for 10 days and then a 10^6 CFU/ml suspension was prepared from each of them. A test bacteria or fungi suspension was streaked on an agar plate containing the compound of the present invention with platinum wire loop, and the agar plate was cultured at 37±1 °C for 18 to 20 hours for bacteria or at 27 °C for 7 days for fungi. A concentration at which no growth was seen was taken as minimum inhibitory concentration [MIC(mg/l)]. Symbols in the table mean the followings; • A: Bacillus subtilis, • B: Trichophyton mentagrophytes, • C: Rhodotorula mucilaginosa.

[8] = test system: Trichophyton mentagrophytes; assay: Agar dilution MIC (Example 2); conditions: 168 h, agar plate, 27 °C, 7 days
Experimental: as §4

[9] = test system: seawater diatom [Nitzschia closterium]; assay: Inhibition of propagation of seawater diatom (Example 5); conditions: Cylindrotheca closterium, 72 h, read-out: Propagation inhibiting rate(%) 500ppb
Experimental: A predetermined amount of each of the compounds of the invention was dissolved in culture media containing 10^5 /ml of a seawater diatom [Nitzschia closterium] at a logarithmic growth phase to prepare samples having a concentration of the compound in the medium of 500 ppb. The samples were stationary cultured at 22±1 °C for […] under continuous illumination.
After 72 hours, cells were collected by centrifugation and disrupted by addition of methanol to extract chlorophyll, and the amount of chlorophyll was measured from absorbance using a spectrophotometer to obtain propagation rate. The propagation inhibiting rate was calculated from comparison with the non-treated lot.

[10] = test system: Trichophyton mentagrophytes; assay: Agar dilution MIC (Example 3); conditions: 168 h, agar plate, 27 °C, 7 days
Experimental: as §3

[11] = 72hr, read-out: Propagation inhibiting rate (%) 500ppb 72hr
[12] = 168hr, read-out: Propagation inhibiting rate (%) 500ppb 168hr

MIC (Aspergillus niger) [µg/mL]	MIC (Rhodotorula rubra) [µg/mL]	MIC (Penicillium funiculosum) [µg/mL]	MIC [4] [µg/mL]	MIC (Fusarium moniliforme) [µg/mL]	MIC (Chaetomium globosum) [µg/mL]	MIC [5] [µg/mL]	MIC (Saccharomyces cerevisiae) [µg/mL]	MIC (Rhodotorula mucilaginosa) [µg/mL]	MIC [8] [µg/mL]	SMILES	inhibition at 0.5 ppm [2] [%]	inhibition at 0.5 ppm [3, 11] [%]	inhibition at 0.5 ppm [3, 12] [%]	MIC (Alternaria alternata) [µg/mL]	Judgment (Target bacteria: A) [6]	inhibition at 0.5 ppm [7] [%]	further results
7.8 (≈ 25.2 µM)	31.3 (≈ 101 µM)	15.6 (≈ 50.4 µM)	–	31.3 (≈ 101 µM)	31.3 (≈ 101 µM)	7.8 (≈ 25.2 µM)	15.6 (≈ 50.4 µM)	15.6 (≈ 50.4 µM)	2 (≈ 6.46 µM)	Cc1cc(C)c(CN(C)Cc2ccc(C(C)(C)C)cc2)c(C)c1 [Compound 20]	–	–	–	15.6 (≈ 50.4 µM)	–	63	–
–	–	–	–	–	–	–	–	62.5 (≈ 198 µM)	15.6 (≈ 49.3 µM)	Clc1ccc(CNCc2cccc3ccccc23)cc1Cl [Compound 49]	–	–	–	–	–	97	inhibition at 0.5 ppm [9]: 100%
125 (≈ 423 µM)	125 (≈ 423 µM)	31.3 (≈ 106 µM)	125 (≈ 423 µM)	63 (≈ 213 µM)	31.3 (≈ 106 µM)	31.3 (≈ 106 µM)	63 (≈ 213 µM)	–	–	Cc1cc(C)cc(CN(C)Cc2ccc(C(C)(C)C)cc2)c1 [Compound 2]	–	91	99	–	++ (strongly inhibiting zone (equal to or more than 21 mm) is observed)	96	MIC [10]: < 2 µg/mL; inhibition at 0.05 ppm ([7]; 50ppb, read-out: Propagation inhibiting rate(%) 50ppb): 84%
–	–	–	125 (≈ 407 µM)	–	–	15.6 (≈ 50.7 µM)	31.3 (≈ 102 µM)	–	< 0.062	CN(Cc1ccc(C(C)(C)C)cc1)C1CCCc2ccccc21 (stereo not shown) [Compound 6]	79	–	–	–	++ (strongly inhibiting zone (equal to or more than 21 mm) is observed)	70	–

SMILES	MIC (Aspergillus niger) [µg/mL]	MIC (Rhodotorula rubra) [µg/mL]	MIC (Penicillium funiculosum) [µg/mL]	MIC [4] [µg/mL]	MIC (Fusarium moniliforme) [µg/mL]	MIC (Chaetomium globosum) [µg/mL]	MIC [5] [µg/mL]	MIC (Saccharomyces cerevisiae) [µg/mL]	MIC (Rhodotorula mucilaginosa) [µg/mL]	MIC [8] [µg/mL]	inhibition at 0.5 ppm [2] [%]	inhibition at 0.5 ppm [3, 11] [%]	inhibition at 0.5 ppm [3, 12] [%]	MIC (Alternaria alternata) [µg/mL]	Judgment (Target bacteria: A) [6]	inhibition at 0.5 ppm [7] [%]	further results
Cc1cccc(C)c1CN(C)Cc1ccc(C(C)(C)C)cc1 [Compound 5]	< 2	63 (≈ 213 µM)	15.6 (≈ 52.8 µM)	31.3 (≈ 106 µM)	7.8 (≈ 26.4 µM)	15.6 (≈ 52.8 µM)	7.8 (≈ 26.4 µM)	63 (≈ 213 µM)	–	–	62	76	78	125 (≈ 423 µM)	++ (strongly inhibiting zone (equal to or more than 21 mm) is observed)	75	inhibition at 0.5 ppm ([1]; 72hr, read-out: Propagation inhibiting rate(%) 500ppb 72hr): 56%; inhibition at 0.5 ppm ([1]; 168hr, read-out: Propagation inhibiting rate(%) 500ppb 168hr): 62%
